Values of other authors, collected in US20030157192A1, “Low temperature disinfectant/sterilant for medical devices and topical applications” (Healthpoint, Ltd., priority 2002, published 2003).

How the values were obtained:
[1] = room temperature; low pH
mouse skin = conditions: tested on mouse skin

Compound | minimum time required to pass the AOAC Sporicidal Test [1] [h] | tumor promotion (mouse skin)
OO [6% hydrogen peroxide, hydrogen peroxide] | ≥ 6 | –
CC(=O)OO [Peracetic acid] | – | tumor-promoting agent
